Values joined by “and” are separate entries in the source; they are usually repeats but may differ in a detail not shown here. Equal values may be shown once.
Assays:
hCB2R = target: T1, hCB2R (Homo sapiens, UniProt P34972); test: [3H]RO6957022 displacement assay; format: binding; details: for percentage specific [3H]RO6957022 binding (displacement): individual replicates
T1 construct: host or cells: CHO-K1 (CHOK1_hCB2bgal, PathHunter), membranes

CB2R-I110^3.29L = CB2R-I110^3.29L (Homo sapiens, UniProt P34972, I110L); test: [3H]CP55,940 displacement assay, CB2R I110L mutant; format: binding; details: for percentage specific [3H]CP55,940 binding: I1103.29L, individual replicates
Chain of CB2R-I110^3.29L (P34972 whole entry I110L): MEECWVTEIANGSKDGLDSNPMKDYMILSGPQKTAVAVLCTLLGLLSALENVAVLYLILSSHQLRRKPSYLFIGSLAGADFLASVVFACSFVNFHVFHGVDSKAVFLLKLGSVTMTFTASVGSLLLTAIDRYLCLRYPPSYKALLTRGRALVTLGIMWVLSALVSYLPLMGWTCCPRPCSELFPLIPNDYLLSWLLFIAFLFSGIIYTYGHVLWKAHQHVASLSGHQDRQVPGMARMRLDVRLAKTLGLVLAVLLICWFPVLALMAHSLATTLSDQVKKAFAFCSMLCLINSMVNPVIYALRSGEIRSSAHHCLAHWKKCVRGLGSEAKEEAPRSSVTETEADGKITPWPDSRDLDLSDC

CB1R-H270^ECL2L [1] = target: T2, CB1R-H270^ECL2L (Homo sapiens, UniProt P21554, H270L); test: [35S]GTPγS assay, CB1R H270L mutant; format: biochemical
T2 sequence (P21554 whole entry H270L): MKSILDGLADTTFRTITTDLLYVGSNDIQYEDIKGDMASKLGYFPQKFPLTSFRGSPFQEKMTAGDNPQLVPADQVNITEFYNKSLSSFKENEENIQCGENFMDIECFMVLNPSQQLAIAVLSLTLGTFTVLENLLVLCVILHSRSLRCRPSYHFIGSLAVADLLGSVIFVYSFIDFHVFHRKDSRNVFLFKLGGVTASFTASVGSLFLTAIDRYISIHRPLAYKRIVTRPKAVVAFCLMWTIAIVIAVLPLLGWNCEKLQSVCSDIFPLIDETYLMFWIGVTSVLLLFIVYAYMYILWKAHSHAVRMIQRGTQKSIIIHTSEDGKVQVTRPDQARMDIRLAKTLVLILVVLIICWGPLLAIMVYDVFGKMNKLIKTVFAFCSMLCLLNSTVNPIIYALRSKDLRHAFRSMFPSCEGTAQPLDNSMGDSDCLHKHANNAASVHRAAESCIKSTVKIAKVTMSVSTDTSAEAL

[2] = tested on: cisplatin-induced nephropathy, CB2R knockout mice (CB2R−/−); test: Cisplatin-induced nephropathy in CB2R knockout mice; format: in vivo
Method: (§1) Ten to twelve-week-old male/female C57BL/6J mice were obtained from The Jackson Laboratory (Bar Harbor, ME, USA). CB2R knockout mice (CB2R^−/−) and their wild-type littermates (CB2R^+/+) were developed as described previously and had been backcrossed to a C57BL/6J background. All animals were kept in a temperature-controlled environment (20–22 °C) with a 12 h light–dark cycle and were always allowed free access to food and water. All animal experiments reported in this manuscript complied with the National Institutes of Health “Guide for the Care and Use of Laboratory Animals” (NIH publication 86–23 revised 1985) and were approved by the Institutional Animal Care and Use Committee of the National Institute on Alcohol Abuse and Alcoholism (Bethesda, MD).
(§2) The well-established model of cisplatin-induced nephropathy was used[63]. Mice (CB2R^−/− and CB2R^+/+) were sacrificed 72 h after a single injection of cisplatin (cis-diamine platinum (II) dichloride (Sigma#P4394) 25 mg/kg i.p.; freshly dissolved in physiological saline) by cervical dislocation under deep anesthesia with 5% isoflurane, for collection of blood and tissue samples. LEI-102 was given i.p. or by oral gavage (p.o.) at 0.3, 3.0, and 10 mg/kg every day, starting 1.5 h before the cisplatin exposure. The drug was dissolved in a vehicle of DMSO:Tween 80:saline, 1:1:18. After administration of LEI‐102, mice were killed by cervical dislocation under deep anesthesia with 5% isoflurane, for collection of blood and tissue samples at the time described in the figure. The tetrad assay in mice has previously been described in detail.
(§3) Markers of kidney dysfunction (BUN and CREA), histopathology (PAS staining), immunostaining or ELISA for 3-nitrotyrosine (3-NT; Cell Biolabs #STA-305) and 4-hydroxynonenal (4-HNE; Cell Biolabs#STA-838), and real-time PCR (Primers from Qiagen, SYBER Green Vita Scientific#MEIF01301, High-Capacity cDNA Reverse Transcription Kit, Thermo Fisher Scientific#4368813) for inflammatory cytokines were performed as previously described. Tubular damage scores were determined based on the percentage of tubules showing epithelial necrosis where 0= normal; 1, <10%; 2, 10–25%; 3, 26–75%; 4, >75%. Tubular necrosis was defined as the loss of the proximal tubular brush border, blebbing of apical membranes, tubular epithelial cell detachment from the basement membrane, or intraluminal aggregation of cells and proteins. The morphometric examination was performed in a blinded manner. Ten fields were scored from each mouse kidneys at 200× magnification, and average scores were determined for each mouse. For final quantification graph, average tubular damage scores of six mice/group were plotted.

[3] = tested on: cisplatin-induced nephropathy; test: Cisplatin-induced nephropathy in wild type mice; format: in vivo, C57BL/6J mice; details: for BUN / CREA: 72 h; for BUN / CREA / HNE (HNE adducts, ELISA) / NT (protein nitration, ELISA) / IL1b expression (real-time PCR) / TNFa expression (real-time PCR): mean, n = 6; for HNE (HNE adducts, ELISA) / NT (protein nitration, ELISA) / IL1b expression (real-time PCR) / TNFa expression (real-time PCR): kidney; for HNE (HNE adducts, ELISA) / NT (protein nitration, ELISA): vehicle mean 1.0; for IL1b expression (real-time PCR) / TNFa expression (real-time PCR): vehicle mean 1.00
Method: as §1, §2, §3

CB1R-H270^ECL2L [4] = target: T2, CB1R-H270^ECL2L; test: [3H]CP55,940 displacement assay, CB1R H270L mutant; format: binding
CB1R D266ECL2E [5] = target: T3, CB1R D266ECL2E (Homo sapiens, UniProt P21554, D266E); test: [3H]CP55,940 displacement assay, CB1R D266E mutant; format: binding
T3 construct: The WT CB1R and CB2R genes were subcloned into vector pcDNA3.1; HA signal peptide (N); expressed in transfected cells; host or cells: HEK293T (transient, membrane homogenates)
T3 sequence (P21554 whole entry D266E): as the sequence (P21554 whole entry H270L) above, with D266E, L270H counted along it

CB2R-V261^6.51L = CB2R-V261^6.51L (Homo sapiens, UniProt P34972, V261L); test: [35S]GTPγS assay, CB2R V261L mutant; format: biochemical; details: for [35S]GTPγS binding: V2616.51L, individual replicates
Chain of CB2R-V261^6.51L (P34972 whole entry V261L): as the sequence (P34972 whole entry I110L) above, with L110I, V261L counted along it

CB2R-L185^ECL2H = CB2R-L185^ECL2H (Homo sapiens, UniProt P34972, L185H); test: [35S]GTPγS assay, CB2R L185H mutant; format: biochemical; details: L185H mutant
Chain of CB2R-L185^ECL2H (P34972 whole entry L185H): as the sequence (P34972 whole entry I110L) above, with L110I, L185H counted along it

CB1R D266ECL2E [6] = target: T3, CB1R D266ECL2E; test: [35S]GTPγS assay, CB1R D266E mutant; format: biochemical
CB2R-F117^3.36A = CB2R-F117^3.36A (Homo sapiens, UniProt P34972, F117A); test: [35S]GTPγS assay, CB2R F117A mutant; format: biochemical
Chain of CB2R-F117^3.36A (P34972 whole entry F117A): as the sequence (P34972 whole entry I110L) above, with L110I, F117A counted along it

[7] = Cisplatin + LEI-102 10 mg/kg, KO, mean, n = 6
[8] = V261L mutant, <5 when curve fit not finished

T1 sequence (P34972 whole entry): as the sequence (P34972 whole entry I110L) above, with L110I counted along it

## CC(C)CN1C(=O)CN(Cc2ccc(-c3ccc(F)c(CNC4CCOCC4)n3)cc2)C1=O [LEI-102, 1-(4-(5-fluoro-6-(((tetrahydro-2H-pyran-4-yl)amino)methyl)pyridin-2-yl)benzyl)-3-isobutylimidazolidine-2,4-dione]
hCB2R; CHOK1_hCB2bgal membranes, 10 °C
  Ki: 9.7 nM
hCB2R; log [agonist] (M) -5
  percentage specific [3H]RO6957022 binding (displacement): -32.33% and 4.32% and 0.17%
hCB2R; log [agonist] (M) -6
  percentage specific [3H]RO6957022 binding (displacement): -14.04% and 1.26% and 2.78%
hCB2R; log [agonist] (M) -7
  percentage specific [3H]RO6957022 binding (displacement): 18.14% and 30.43% and 22.20%
hCB2R; log [agonist] (M) -8
  percentage specific [3H]RO6957022 binding (displacement): 86.67% and 64.68% and 56.33%
hCB2R; log [agonist] (M) -9
  percentage specific [3H]RO6957022 binding (displacement): 136.04% and 85.34% and 92.04%
hCB2R; log [agonist] (M) -10
  percentage specific [3H]RO6957022 binding (displacement): 150.08% and 77.03% and 85.93%
CB2R-I110^3.29L; CB2R I110L mutant, [3H]CP55,940
  pKi: remained similar
CB2R-I110^3.29L; log [ligand] (M) -5
  percentage specific [3H]CP55,940 binding: 3.91% and 2.37% and 4.51%
CB2R-I110^3.29L; log [ligand] (M) -6
  percentage specific [3H]CP55,940 binding: 9.98% and 9.21% and 3.23%
CB2R-I110^3.29L; log [ligand] (M) -7
  percentage specific [3H]CP55,940 binding: 39.17% and 30.03% and 31.46%
CB2R-I110^3.29L; log [ligand] (M) -8
  percentage specific [3H]CP55,940 binding: 86.59% and 79.23% and 85.93%
CB2R-I110^3.29L; log [ligand] (M) -9
  percentage specific [3H]CP55,940 binding: 105.91% and 105.22% and 104.46%
CB2R-I110^3.29L; log [ligand] (M) -10
  percentage specific [3H]CP55,940 binding: 128.52% and 108.89% and 100.89%
CB2R-I110^3.29L; read-out: pKi (converted)
  Ki: 12.6 nM
CB1R-H270^ECL2L [1]; CB1R H270ECL2L, individual replicates
  G protein activation, fold over its basal: 1.101 fold over its basal and 1.221 fold over its basal and 1.256 fold over its basal
CB1R-H270^ECL2L [1]; CB1R H270L, 10 µM agonist
  Agonist-mediated activation: 1.2 ± 0.0 fold over its basal
[2]; CB2R knockout mice
  protective effects against cisplatin-induced renal dysfunction, tubular damage, histopathological injury and oxidative-nitrative stress: abolished
[2]; [7]
  BUN: 312
  CREA: 3.9
  Tubular damage score: 2.88
[3]; Cis + LEI-102 i.p. 0.3 mg/kg every day
  BUN: 143.0 mg/dL
[3]; Cis + LEI-102 i.p. 0.3 mg/kg
  CREA: 1.6 mg/dL
[3]; Cis + LEI-102 i.p. 3 mg/kg
  BUN: 32.8 mg/dL
  CREA: 0.7 mg/dL
[3]; Cis + LEI-102 i.p. 10 mg/kg
  BUN: 24.8 mg/dL
  CREA: 0.6 mg/dL
  HNE (HNE adducts, ELISA): 2.7
  NT (protein nitration, ELISA): 2.4
  IL1b expression (real-time PCR): 1.90
  TNFa expression (real-time PCR): 1.59
[3]; Cis + LEI-102 p.o. 3 mg/kg
  BUN: 53.5 mg/dL
  CREA: 1.0 mg/dL
[3]; Cis + LEI-102 p.o. 10 mg/kg
  BUN: 31.8 mg/dL
  CREA: 0.53 mg/dL
  HNE (HNE adducts, ELISA): 2.4
  NT (protein nitration, ELISA): 2.8
  IL1b expression (real-time PCR): 2.71
  TNFa expression (real-time PCR): 1.42
[3]; LEI-102 10 mg/kg by i.p. or p.o.
  lipid peroxidation and protein nitration in kidney: decreased
[3]; LEI-102 p.o. or i.p., 72 h after cisplatin 25 mg/kg i.p.
  functional markers of cisplatin-induced kidney injury (serum creatinine, blood urea nitrogen): dose-dependent attenuation
[3]; LEI-102 treated mice
  pro-inflammatory cytokines TNFα and IL1β elevated by cisplatin-induced injury: attenuated
CB1R-H270^ECL2L [4]; CB1R H270ECL2L, 10 µM ligand, replicates 1-3
  percentage specific [3H]CP55,940 binding: 43.52 percentage and 52.40 percentage and 62.26 percentage
CB1R-H270^ECL2L [4]; CB1R H270L, 10 µM compound
  Displacement (%) of [3H]CP55,940: 47 ± 5%
CB1R D266ECL2E [5]; CB1R D266E, 10 µM compound
  Displacement (%) of [3H]CP55,940: 38 ± 10%
CB1R D266ECL2E [5]; CB1R D266ECL2E, 10 µM ligand, replicates 1-3
  percentage specific [3H]CP55,940 binding: 65.03 percentage and 44.89 percentage and 77.53 percentage
CB2R-V261^6.51L; [8]
  EC50: 398 nM
  pEC50: no significant effect
CB2R-V261^6.51L; V261L mutant, at 10 µM compared to WT
  Emax (%): 8 ± 4%
CB2R-V261^6.51L; log [ligand] (M) -5
  [35S]GTPγS binding: 10.29 percentage of WT and 13.28 percentage of WT and -0.20 percentage of WT
CB2R-V261^6.51L; log [ligand] (M) -6
  [35S]GTPγS binding: 38.11 percentage of WT and 3.14 percentage of WT and 6.06 percentage of WT
CB2R-V261^6.51L; log [ligand] (M) -7
  [35S]GTPγS binding: 1.50 percentage of WT and -10.33 percentage of WT and -12.90 percentage of WT
CB2R-V261^6.51L; log [ligand] (M) -8
  [35S]GTPγS binding: -5.39 percentage of WT and -14.91 percentage of WT and -5.93 percentage of WT
CB2R-V261^6.51L; log [ligand] (M) -9
  [35S]GTPγS binding: -6.94 percentage of WT and -6.08 percentage of WT and -10.10 percentage of WT
CB2R-V261^6.51L; log [ligand] (M) -10
  [35S]GTPγS binding: 6.99 percentage of WT and -5.10 percentage of WT and -20.01 percentage of WT
CB2R-L185^ECL2H; HEK293T membranes
  EC50: 126 nM
CB2R-L185^ECL2H; at 10 µM compared to WT
  Emax (%): 217 ± 21%
CB1R D266ECL2E [6]; CB1R D266E, 10 µM agonist
  Agonist-mediated activation: 1.1 ± 0.1 fold over its basal
CB1R D266ECL2E [6]; CB1R D266ECL2E, individual replicates
  G protein activation, fold over its basal: 1.059 fold over its basal and 1.264 fold over its basal and 1.015 fold over its basal
CB2R-F117^3.36A; F117A mutant, at 10 µM compared to WT
  Emax (%): 11 ± 11%
CB2R-F117^3.36A; F1173.36A, log [ligand] (M) -5, individual replicates
  [35S]GTPγS binding: -10.74 percentage of WT and 22.02 percentage of WT and 22.63 percentage of WT

Source: PMC10017709, “Structural basis of selective cannabinoid CB2 receptor activation” (Nature Communications, 2023)
